# Tests used:
# CCRF-CEM cells [1] = assay: Protein-bound intracellular [3H]MTX; assay type: cell-based, human
# Experimental: The cell pellet was frozen immediately at less than or equal to −80 degrees C. To process, 1 ml iced lysis buffer was added to the pellet immediately after removal from the freezer and the pellet was dispersed with a pasteur pipette. Freshly made lysis buffer contained (final concentrations): 50 mM citric-citrate, pH 6.0, 50 mM 2-mercaptoethanol, 50 μM NADPH (in 25 mM Tris, pH7.5), and 2 mg/ml bovine serum albumin. The sample was freeze-thawed once in dry ice-methanol, centrifuged at 1860×g for 10 min to remove debris and then further clarified by centrifugation through an Amicon MPS-1 filter unit. A 5 ml centrifugal column was prepared at 4 degrees C. in a 5 ml plastic syringe plugged with a porous plastic frit overlaid with a GF/C glass fiber filter cut with a #8 cork borer, then packed with Sephadex G-25 (Medium) in 50 mM citric-citrate, pH 6.0 to the 5 ml line, and centrifuged 5 min at 1000×g (0°) to expel liquid. The clarified supernatant (0.5 ml) was applied to the top of the column, the column was re-centrifuged at 1000×g (5 min) and the pass-through was collected in a 7 ml scintillation vial. After addition of scintillation fluid (5.5 ml), the sample was quantitated by liquid scintillation counting.
# CCRF-CEM cells [2] = assay: Subcellular localization of [3H]MTX; assay type: cell-based, human
# Experimental: Subcellular fractionation. […] Cells were diluted 9-fold in iced 0.9% NaCl, centrifuged at 1000×g for 5 min and washed once with 40 ml iced saline. All subsequent steps were performed at 4°. Cells were homogenized as previously described, except that hypotonic buffer at 20-fold the packed cell volume was used, and the homogenate was centrifuged for 6 min at 1000×g to yield a nuclear pellet (also containing unlysed cells and large debris) and a post-nuclear supernatant (PNS). Based on controls using nonradiolabeled cells, >91% of the cells would be lysed during homogenization. The PNS was centrifuged at 17,000×g to yield a combined mitochondria-lysosome pellet. The resulting supernatant was centrifuged at 100,000×g for 60 min to yield the 100,000×g supernatant (cytosol). The 100,000×g pellet (microsomes) and the combined mitochondria-lysosome pellet were each washed in isotonic buffer and centrifuged at their respective g-forces. All pellets were solubilized in 0.3% Triton X-100 by incubating at 37° for 1 hr; 1 ml was transferred to a scintillation vial for quantitation. Triton X-100 was added to the cytosol to a final concentration of 0.3% and a 1 ml aliquot was quantitated. Radioactivity in each fraction was corrected for a blank containing 0.3% Triton X-100.
# [3] = system: K562 human chronic myelogenous leukemia cell line; assay: [3H]MTX influx in K562 cells; assay type: cell-based; conditions: 0.5 mM Z; data not shown
# [4] = system: R2 clones transfected with human RFC expression plasmid; assay: [3H]MTX transport in RFC-transfected R2 clones; assay type: cell-based
# Experimental: To further confirm the involvement of RFC, we transfected the RFC-negative R2 subline of CCRF-CEM with a human RFC expression plasmid. Stably expressing clones were selected in 2 nM leucovorin (LV)-containing RPMI 1640 medium (R2 cannot replicate in this medium, while parental RFC-expressing CCRF-CEM can replicate). […] This supports RFC as mediating the transport potentiated by Z.
# [5] = target: T1, es (or ENT1) facilitated diffusion nucleoside transport system (Homo sapiens, UniProt Q99808); assay: Inhibition of Z potentiation of [3H]MTX uptake by es nucleoside transporter inhibitors; assay type: cell-based; conditions: [Z] 500 μM, HBSS
# T1 construct: this is the only nucleoside transporter present in CCRF-CEM cells; endogenous in cells; host or cells: CCRF-CEM (parental), in HBSS
# T1 sequence (Q99808 1-456): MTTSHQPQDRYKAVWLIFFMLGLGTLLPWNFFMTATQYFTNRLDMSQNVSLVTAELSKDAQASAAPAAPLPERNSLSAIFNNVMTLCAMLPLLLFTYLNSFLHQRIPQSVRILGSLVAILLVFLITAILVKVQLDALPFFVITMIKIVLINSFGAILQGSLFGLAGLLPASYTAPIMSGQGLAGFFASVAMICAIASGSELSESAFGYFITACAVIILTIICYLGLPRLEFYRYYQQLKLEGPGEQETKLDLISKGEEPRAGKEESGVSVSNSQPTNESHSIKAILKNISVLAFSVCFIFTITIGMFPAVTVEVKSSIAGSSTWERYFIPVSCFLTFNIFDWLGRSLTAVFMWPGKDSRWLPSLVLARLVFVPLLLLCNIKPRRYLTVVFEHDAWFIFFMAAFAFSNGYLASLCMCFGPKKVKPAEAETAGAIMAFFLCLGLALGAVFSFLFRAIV
# [6] = system: araC 8C subline of CCRF-CEM; assay: [3H]MTX uptake in es-deficient araC 8C subline; assay type: cell-based, human; conditions: 30 min time course ±Z
# Experimental: Z potentiation was evaluated: (1) in a subline of CCRF-CEM (araC 8C) deficient in the es (or ENT1) facilitated diffusion nucleoside transport system (this is the only nucleoside transporter present in CCRF-CEM cells); and (2) in the presence of specific inhibitors of the es nucleoside transporter. […] Note that potentiation by Z is large in these studies because they were performed in HBSS to avoid binding of inhibitors by serum proteins and Z potentiation is higher in HBSS than in RPMI1640. […] Concentration-dependence studies are proposed to quantitate the potency of each inhibitor (IC50).
# [7] = system: dCK-deficient subline of CCRF-CEM; assay: [3H]MTX uptake in deoxycytidine kinase-deficient subline; assay type: cell-based, human; conditions: compared to parental CCRF-CEM
# Experimental: Z metabolism by deoxycytidine kinase is not essential for Z potentiation. These experiments were conducted to determine if Z itself can cause potentiation orf needs to be metabolized to exert its effect. For these experiments, a deoxycytidine kinase (dCK)-deficient subline of CCRF-CEM was used. Although designated as dCK, this enzyme also phosphorylates the purines deoxyadenosine, deoxyguanosine, and fludarabine. Use of this subline allowed us to test the hypothesis that phosphorylation of Z to ZMP by dCK is essential for potentiation. […] Thus it appears that dCK is not absolutely required for Z potentiation, but may contribute to the metabolism.
# [8] = human, in vivo; cited from earlier work
Compound,Protein-bound MTX level at 30 min (CCRF-CEM cells [1]; absence of Z) [pmol/10^7 cells],Protein-bound MTX level at 30 min (CCRF-CEM cells [1]; presence of 0.5 mM Z) [pmol/10^7 cells],Cytosol material that is MTX or metabolites (HPLC) (CCRF-CEM cells [2]) [%],"Radioactivity that is cytosolic, post-nuclear supernatant only (CCRF-CEM cells [2]; nuclear pellet excluded) [%]",Total recovered radioactivity in the cytosolic fraction (CCRF-CEM cells [2]; ±Z),Potentiation of [3H]MTX influx [3],Potentiation of [3H]MTX transport in RFC-transfected clones compared with CCRF-CEM [4],"Rel Corrected 30 min accumulation (relative to +Z, no inhibitor) [5]","Relative Corrected vi (relative to +Z, no inhibitor) [5]",Accumulation at 30 min ([5]; no inhibitor) [pmol],Corrected 30 min accumulation (accum +Z minus accum −Z with same inhibitor) ([5]; no inhibitor),Corrected vi (rate +Z minus rate −Z with same inhibitor) ([5]; no inhibitor),vi ([5]; no inhibitor) [pmol/min],Potentiation of [3H]MTX uptake in araC 8C subline [6],Potentiation of [3H]MTX uptake in dCK-deficient subline [7],Toxicity in clinical trials [8]
"CN(Cc1cnc2nc(N)nc(N)c2n1)c1ccc(C(=O)N[C@@H](CCC(=O)O)C(=O)O)cc1 [MTX, 4-amino-10-methylpteroylglutamic acid]",6.4±0.1,5.4±0.4,> 90,> 98,More than 91%,–,–,–,–,–,–,–,–,–,–,–
"NC(=O)c1ncn([C@@H]2O[C@H](CO)[C@@H](O)[C@H]2O)c1N [Z, 5-amino-4-imidazolecarboxamide riboside]",–,–,–,–,–,potentiates,potentiated by Z to a similar extent,1,1,108.3,91.3,4.25,5.65,no potentiation,"showed potentiation by Z, although to a slightly lower level",nontoxic

# Source: patent US7687473B2, “5-amino-4-imidazolecarboxamide riboside and its nucleobase as potentiators of antifolate transport and metabolism” (Health Research, Inc., priority 2005, dated 2010)
